The values below come from US12679878B2, “CRF2 receptor agonists and their use in therapy” (SANOFI, priority 2020, dated 2026).

One assay deals with T1, human CRF2α receptor (Homo sapiens, UniProt Q13324).
T1 construct: expressed in transfected cells; host or cells: TeloHEAC
T1 sequence (Q13324 1-411): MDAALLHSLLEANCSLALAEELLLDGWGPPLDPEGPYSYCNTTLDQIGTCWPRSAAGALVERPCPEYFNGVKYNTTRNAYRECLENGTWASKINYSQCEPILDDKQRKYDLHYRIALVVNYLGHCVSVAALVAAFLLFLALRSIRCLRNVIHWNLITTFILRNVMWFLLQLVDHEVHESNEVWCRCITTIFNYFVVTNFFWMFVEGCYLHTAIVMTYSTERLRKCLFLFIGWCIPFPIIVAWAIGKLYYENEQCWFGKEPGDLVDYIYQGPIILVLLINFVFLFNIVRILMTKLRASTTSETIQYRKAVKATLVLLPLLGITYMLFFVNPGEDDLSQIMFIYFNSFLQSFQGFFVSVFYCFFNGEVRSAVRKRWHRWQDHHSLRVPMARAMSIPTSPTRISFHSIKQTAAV
Briefly: cAMP agonism at human CRF2 α receptor in TeloHEAC cells (Example 7). In kind it is cell-based. Conditions: cAMP HTRF, TeloHEAC cells stably expressing human CRF2 α. The gist of the method: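 Steps: thaw and wash cells; suspend in 1×HBSS, 20 mM HEPES, 0 or 0.1% HSA, 2 mM IBMX; add compound, 30 min RT; lyse with HTRF reagents, 1 h; read 665/620 nm. EC50 calculated, E% versus 1000 nM UCN2.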
In general terms: In TR-FRET formats the signal depends on donor and acceptor labels being close together.

A further assay deals with T2, CRF1R receptor (Homo sapiens, UniProt P34998).
T2 construct: host or cells: CHO-K1 clone 2
T2 sequence (P34998 24-415): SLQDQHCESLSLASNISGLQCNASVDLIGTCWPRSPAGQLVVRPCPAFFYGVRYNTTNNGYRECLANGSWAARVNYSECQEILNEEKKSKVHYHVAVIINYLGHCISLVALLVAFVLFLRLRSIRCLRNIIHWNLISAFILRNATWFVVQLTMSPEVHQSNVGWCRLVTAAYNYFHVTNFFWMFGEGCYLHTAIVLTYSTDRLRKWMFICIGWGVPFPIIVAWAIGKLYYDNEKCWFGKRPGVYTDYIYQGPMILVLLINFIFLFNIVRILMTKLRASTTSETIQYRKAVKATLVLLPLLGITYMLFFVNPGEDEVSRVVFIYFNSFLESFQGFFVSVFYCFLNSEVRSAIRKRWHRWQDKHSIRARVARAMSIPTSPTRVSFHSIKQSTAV
Briefly: cAMP activity at anti-target CRF1R, CHO-K1 cell line clone 2 (Example 19.10). In kind it is cell-based. Conditions: CRF1R CHO-K1 clone 2; for EC50: 0% HSA, read-out: EC50 [nM] 0% HSA; for Emax: 100% = Sauvagine at 100 nM. Summed up: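 The cAMP read-out used the same protocol as the previous assay, except that Sauvagine at 100 nM set the 100% activation control. Cells were CHO-K1 clone 2 overexpressing CRF1R, cultured in F12 medium with 10% FBS and G418 and stored frozen until use.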

Setting [1] is: 0% HSA, read-out: EC50 [nM], 0% HSA.
The mark [2] stands for this setting: 0.1% HSA, read-out: EC50 [nM], 0.1% HSA.

Where two headings read alike, the source gives them in different places. Starred links: 1 amine or outer side, 2 acyl side, 3 side chain; linkers in the order of their positions; H or OH if unused. Non-standard residues stand in square brackets, D forms with d. Residues, ends and D or L forms follow the SMILES beside them. Groups on a side chain read outwards from the residue. *: point of attachment. C18 diacid = O=C(O)CCCCCCCCCCCCCCCCC(=O)*; γGlu = O=C(O)[C@H](CCC(=O)[*:2])N[*:1]; AEEA = NCCOCCOCC(=O)O; Aib = CC(C)(N)C(=O)O A value given as a limit tells only on which side of the number the result lay.

As a reminder, the EC50 is the concentration needed to bring the measured effect to its halfway point. For orientation: Emax means the size of the effect at its maximum, as opposed to the concentration needed.

As for `CC[C@H](C)[C@H](N)C(=O)N[C@H](C(=O)N[C@@H](CC(C)C)C(=O)N[C@@H](CO)C(=O)N[C@@H](CC(C)C)C(=O)N[C@@H](CC(=O)O)C(=O)N[C@H](C(=O)N1CCC[C@H]1C(=O)N[C@H](C(=O)N[C@@H](CCCCN)C(=O)N[C@@H](CC(C)C)C(=O)N[C@@H](CCCCNC(=O)COCCOCCNC(=O)COCCOCCNC(=O)CC[C@H](NC(=O)CCCCCCCCCCCCCCCCC(=O)O)C(=O)O)C(=O)N[C@@H](CCC(N)=O)C(=O)N[C@H](C(=O)N[C@@H](CC(C)C)C(=O)N[C@@H](CC(C)C)C(=O)N[C@@H](CCC(=O)O)C(=O)N[C@@H](CCC(N)=O)C(=O)N[C@@H](CCC(=O)O)C(=O)N[C@@H](CCCNC(=N)N)C(=O)N[C@@H](CCC(N)=O)C(=O)N[C@@H](CCCCN)C(=O)NC(C)(C)C(=O)N[C@@H](CCC(N)=O)C(=O)N[C@@H](CCCNC(=N)N)C(=O)N[C@@H](CCC(=O)O)C(=O)N[C@@H](CCC(N)=O)C(=O)N[C@@H](C)C(=O)N[C@@H](CCC(=O)O)C(=O)N[C@H](C(=O)N[C@@H](CC(N)=O)C(=O)N[C@@H](CCCCN)C(=O)N[C@@H](CCC(N)=O)C(=O)N[C@H](C(=O)N[C@@H](CC(C)C)C(=O)N[C@@H](C)C(=O)N[C@@H](CCC(N)=O)C(=O)N[C@H](C(N)=O)C(C)C)[C@@H](C)CC)[C@@H](C)O)[C@@H](C)CC)[C@@H](C)CC)C(C)C)C(C)C` [compound 103] (H-IVLSLDVPIKLK([AEEA-AEEA-γGlu-C18 diacid])QILLEQERQK[Aib]QREQAETNKQILAQV-NH2), on human CRF2α receptor (setting [1]), the EC50 was determined as 0.84 nM. Besides, at CRF1R receptor, the concentration for a half-maximal effect (EC50) was greater than 100 nM and the Emax is 14%.
The matching figures for `CC[C@H](C)[C@H](N)C(=O)N[C@H](C(=O)N[C@@H](CC(C)C)C(=O)N[C@@H](CO)C(=O)N[C@@H](CC(C)C)C(=O)N[C@@H](CC(=O)O)C(=O)N[C@H](C(=O)N1CCC[C@H]1C(=O)N[C@H](C(=O)N[C@@H](CCCCN)C(=O)N[C@@H](CC(C)C)C(=O)N[C@@H](CCCCNC(=O)COCCOCCNC(=O)COCCOCCNC(=O)CC[C@H](NC(=O)CCCCCCCCCCCCCCCCC(=O)O)C(=O)O)C(=O)N[C@@H](CCC(N)=O)C(=O)N[C@H](C(=O)N[C@@H](CC(C)C)C(=O)N[C@@H](CC(C)C)C(=O)N[C@@H](CCCCN)C(=O)N[C@@H](CCC(N)=O)C(=O)N[C@@H](CCC(=O)O)C(=O)N[C@@H](CCCNC(=N)N)C(=O)N[C@@H](CCC(N)=O)C(=O)N[C@@H](CCCCN)C(=O)NC(C)(C)C(=O)N[C@@H](CCC(N)=O)C(=O)N[C@@H](CCCNC(=N)N)C(=O)N[C@@H](CCC(=O)O)C(=O)N[C@@H](CCC(N)=O)C(=O)N[C@@H](C)C(=O)N[C@@H](CCC(=O)O)C(=O)N[C@H](C(=O)N[C@@H](CC(N)=O)C(=O)N[C@@H](CCCCN)C(=O)N[C@@H](CCC(N)=O)C(=O)N[C@H](C(=O)N[C@@H](CC(C)C)C(=O)N[C@@H](C)C(=O)N[C@@H](CCC(N)=O)C(=O)N[C@H](C(N)=O)C(C)C)[C@@H](C)CC)[C@@H](C)O)[C@@H](C)CC)[C@@H](C)CC)C(C)C)C(C)C` [compound 104] (H-IVLSLDVPIKLK([AEEA-AEEA-γGlu-C18 diacid])QILLKQERQK[Aib]QREQAETNKQILAQV-NH2): 0.32 nM, greater than 100 nM and 3.7%.
For the compound `CC[C@H](C)[C@H](N)C(=O)N[C@H](C(=O)N[C@@H](CC(C)C)C(=O)N[C@@H](CO)C(=O)N[C@@H](CC(C)C)C(=O)N[C@@H](CC(=O)O)C(=O)N[C@H](C(=O)N1CCC[C@H]1C(=O)N[C@H](C(=O)N[C@@H](CCCCN)C(=O)N[C@@H](CC(C)C)C(=O)N[C@@H](CCCCNC(=O)COCCOCCNC(=O)COCCOCCNC(=O)CC[C@H](NC(=O)CCCCCCCCCCCCCCCCC(=O)O)C(=O)O)C(=O)N[C@@H](CCC(N)=O)C(=O)N[C@H](C(=O)N[C@@H](CC(C)C)C(=O)N[C@@H](CC(C)C)C(=O)N[C@@H](CCC(=O)O)C(=O)N[C@@H](CCC(N)=O)C(=O)N[C@@H](CCC(=O)O)C(=O)N[C@@H](CCCNC(=N)N)C(=O)N[C@@H](CCC(N)=O)C(=O)N[C@@H](CCCCN)C(=O)NC(C)(C)C(=O)N[C@@H](CCC(N)=O)C(=O)N[C@@H](CCCNC(=N)N)C(=O)N[C@@H](CCC(N)=O)C(=O)N[C@@H](CCC(N)=O)C(=O)N[C@@H](C)C(=O)N[C@@H](CCC(=O)O)C(=O)N[C@H](C(=O)N[C@@H](CC(N)=O)C(=O)N[C@@H](CCCCN)C(=O)N[C@@H](CCC(N)=O)C(=O)N[C@H](C(=O)N[C@@H](CC(C)C)C(=O)N[C@@H](C)C(=O)N[C@@H](CCC(N)=O)C(=O)N[C@H](C(N)=O)C(C)C)[C@@H](C)CC)[C@@H](C)O)[C@@H](C)CC)[C@@H](C)CC)C(C)C)C(C)C` [compound 105] (H-IVLSLDVPIKLK([AEEA-AEEA-γGlu-C18 diacid])QILLEQERQK[Aib]QRQQAETNKQILAQV-NH2), the EC50 on human CRF2α receptor (setting [1]) was 0.41 nM; on human CRF2α receptor (setting [2]), 15.3 nM; on CRF1R receptor, greater than 100 nM. In addition, the Emax on CRF1R receptor is 15.4%.
With `CC[C@H](C)[C@H](N)C(=O)N[C@H](C(=O)N[C@@H](CC(C)C)C(=O)N[C@@H](CO)C(=O)N[C@@H](CC(C)C)C(=O)N[C@@H](CC(=O)O)C(=O)N[C@H](C(=O)N1CCC[C@H]1C(=O)N[C@H](C(=O)N[C@@H](CCCCN)C(=O)N[C@@H](CC(C)C)C(=O)N[C@@H](CCCCNC(=O)COCCOCCNC(=O)COCCOCCNC(=O)CC[C@H](NC(=O)CCCCCCCCCCCCCCCCC(=O)O)C(=O)O)C(=O)N[C@@H](CCC(N)=O)C(=O)N[C@H](C(=O)N[C@@H](CC(C)C)C(=O)N[C@@H](CC(C)C)C(=O)N[C@@H](CCC(=O)O)C(=O)N[C@@H](CCC(N)=O)C(=O)N[C@@H](CCC(=O)O)C(=O)N[C@@H](CCCNC(=N)N)C(=O)N[C@@H](CCC(N)=O)C(=O)N[C@@H](CCCCN)C(=O)NC(C)(C)C(=O)N[C@@H](CCC(N)=O)C(=O)N[C@@H](CCCNC(=N)N)C(=O)N[C@@H](CCC(=O)O)C(=O)N[C@@H](CCC(N)=O)C(=O)N[C@@H](C)C(=O)N[C@@H](CCC(=O)O)C(=O)N[C@H](C(=O)N[C@@H](CC(N)=O)C(=O)N[C@@H](CCCCN)C(=O)N[C@@H](CCC(N)=O)C(=O)N[C@H](C(=O)N[C@@H](CC(C)C)C(=O)N[C@@H](CCC(=O)O)C(=O)N[C@@H](CCCNC(=N)N)C(=O)N[C@H](C(N)=O)C(C)C)[C@@H](C)CC)[C@@H](C)O)[C@@H](C)CC)[C@@H](C)CC)C(C)C)C(C)C` [compound 106] (H-IVLSLDVPIKLK([AEEA-AEEA-γGlu-C18 diacid])QILLEQERQK[Aib]QREQAETNKQILERV-NH2), the EC50 is 0.53 nM at human CRF2α receptor (setting [1]), 13.2 nM at human CRF2α receptor (setting [2]) and greater than 100 nM at CRF1R receptor. Further, the Emax on CRF1R receptor came out at 5.1%.
For the compound `CC[C@H](C)[C@H](N)C(=O)N[C@H](C(=O)N[C@@H](CC(C)C)C(=O)N[C@@H](CO)C(=O)N[C@@H](CC(C)C)C(=O)N[C@@H](CC(=O)O)C(=O)N[C@H](C(=O)N1CCC[C@H]1C(=O)N[C@H](C(=O)N[C@@H](CCCCN)C(=O)N[C@@H](CC(C)C)C(=O)N[C@@H](CCCCNC(=O)COCCOCCNC(=O)COCCOCCNC(=O)CC[C@H](NC(=O)CCCCCCCCCCCCCCCCC(=O)O)C(=O)O)C(=O)N[C@@H](CCC(N)=O)C(=O)N[C@H](C(=O)N[C@@H](CC(C)C)C(=O)N[C@@H](CC(C)C)C(=O)N[C@@H](CCCCN)C(=O)N[C@@H](CCC(N)=O)C(=O)N[C@@H](CCC(=O)O)C(=O)N[C@@H](CCCNC(=N)N)C(=O)N[C@@H](CCC(N)=O)C(=O)N[C@@H](CCCCN)C(=O)NC(C)(C)C(=O)N[C@@H](CCC(N)=O)C(=O)N[C@@H](CCCNC(=N)N)C(=O)N[C@@H](CCC(N)=O)C(=O)N[C@@H](CCCCN)C(=O)N[C@@H](C)C(=O)N[C@@H](CCC(=O)O)C(=O)N[C@H](C(=O)N[C@@H](CC(N)=O)C(=O)N[C@@H](CCCCN)C(=O)N[C@@H](CCC(N)=O)C(=O)N[C@H](C(=O)N[C@@H](CC(C)C)C(=O)N[C@@H](C)C(=O)N[C@@H](CCC(N)=O)C(=O)N[C@H](C(N)=O)C(C)C)[C@@H](C)CC)[C@@H](C)O)[C@@H](C)CC)[C@@H](C)CC)C(C)C)C(C)C` [compound 108] (H-IVLSLDVPIKLK([AEEA-AEEA-γGlu-C18 diacid])QILLKQERQK[Aib]QRQKAETNKQILAQV-NH2; N-terminus assumed), the results for the EC50 at human CRF2α receptor (setting [1]) and on CRF1R receptor were 0.23 nM and greater than 100 nM, respectively. Besides, the Emax at CRF1R receptor is -2%.
